# Measured values as given in patent US20250230193A1, “CYCLIC COMPOUND HAVING SELECTIVE KRAS INHIBITORY EFFECT ON HRAS AND NRAS” (CHUGAI SEIYAKU KABUSHIKI KAISHA, priority 2022, published 2025).
# Columns and labels:
# [1] = target: GDP-bound NRAS wild-type protein (Homo sapiens, UniProt P01111); assay: Binding to NRAS by surface plasmon resonance (SPR), Single Cycle Kinetics; details: for NRAS/KRAS (ratio of KD for GDP-bound NRAS wild-type to KD for KRAS) / NRAS/KRAS (ratio of KD value with respect to NRAS to KD value with respect to KRAS): SPR; for NRAS/KRAS (ratio of KD value with respect to NRAS to KD value with respect to KRAS): GDP-bound NRAS wild-type vs GDP-bound KRAS wild-type; for NRAS/KRAS (ratio of KD value with respect to GDP-bound NRAS wild-type protein to KD value with respect to KRAS): class symbols
# [2] = target: GDP-bound HRAS wild-type protein (Homo sapiens, UniProt P01112); assay: Binding to HRAS by surface plasmon resonance (SPR), Single Cycle Kinetics; details: for HRAS/KRAS (ratio of KD for GDP-bound HRAS wild-type to KD for KRAS) / HRAS/KRAS (ratio of KD value with respect to HRAS to KD value with respect to KRAS): SPR; for HRAS/KRAS (ratio of KD value with respect to HRAS to KD value with respect to KRAS): GDP-bound HRAS wild-type vs GDP-bound KRAS wild-type; for HRAS/KRAS (ratio of KD value with respect to GDP-bound HRAS wild-type protein to KD value with respect to KRAS): class symbols
# Chain of GDP-bound HRAS wild-type protein (P01112 whole entry): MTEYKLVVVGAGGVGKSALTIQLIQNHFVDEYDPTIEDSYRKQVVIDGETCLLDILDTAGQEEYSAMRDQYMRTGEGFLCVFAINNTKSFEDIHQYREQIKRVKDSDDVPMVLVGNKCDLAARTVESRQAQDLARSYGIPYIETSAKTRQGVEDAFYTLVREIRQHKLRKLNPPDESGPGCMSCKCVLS
# Chain of GDP-bound NRAS wild-type protein (P01111 whole entry): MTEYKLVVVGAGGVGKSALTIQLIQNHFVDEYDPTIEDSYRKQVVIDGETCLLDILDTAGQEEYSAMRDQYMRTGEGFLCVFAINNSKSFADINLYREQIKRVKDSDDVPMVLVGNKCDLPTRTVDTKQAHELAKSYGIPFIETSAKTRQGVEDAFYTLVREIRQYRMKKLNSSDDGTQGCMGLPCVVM
smiles,measurement,setting,value
CCCN1C(=O)[C@@H]2CCN2C(=O)[C@H](C)N(C)C(=O)[C@H]([C@@H](C)CC)NC(=O)[C@H](CC(C)C)N(C)C(=O)C[C@@H](C(=O)N2CCOCC2)N(C)C(=O)[C@H](C2CCCC2)N(C)C(=O)C2(CCCC2)NC(=O)[C@@H]2C[C@H](O)CN2C(=O)[C@H](CCc2ccc(C(F)(F)F)c(Cl)c2)NC(=O)CN(C)C(=O)[C@@H]1Cc1ccc(C(F)(F)F)cc1 (stereo in doubt) [PP0238],NRAS/KRAS (ratio of KD for GDP-bound NRAS wild-type to KD for KRAS),[1],C (A compound having a KD ratio of 0.1 or more and less than 3 is denoted as C)
same,HRAS/KRAS (ratio of KD for GDP-bound HRAS wild-type to KD for KRAS),[2],C (A compound having a KD ratio of 0.1 or more and less than 3 is denoted as C)
CC[C@H](C)[C@@H]1NC(=O)[C@H](CC(C)C)N(C)C(=O)C[C@@H](C(=O)N2CCOCC2)N(C)C(=O)[C@H](C2CCCC2)N(C)C(=O)C2(CCCC2)NC(=O)[C@@H]2CCCN2C(=O)[C@H](CCc2ccc(C(F)(F)F)c(Cl)c2)NC(=O)CN(C)C(=O)[C@H](Cc2ccc(C(F)(F)F)cc2)N2CCCCC[C@@H](C2=O)N(C)C(=O)CN(C)C1=O (stereo in doubt) [PP0319],NRAS/KRAS (ratio of KD for GDP-bound NRAS wild-type to KD for KRAS),[1],B (a compound having 3 or more and less than 10 is denoted as B)
same,HRAS/KRAS (ratio of KD for GDP-bound HRAS wild-type to KD for KRAS),[2],B (a compound having 3 or more and less than 10 is denoted as B)
CCO[C@@H]1C[C@H]2C(=O)NC3(CCC3)C(=O)N(C)[C@@H](C3CCCC3)C(=O)N(C)[C@H](C(=O)N(C)C)CC(=O)N(C)[C@@H](CC)C(=O)N[C@@H]([C@@H](C)CC)C(=O)N(C)CC(=O)N(C)[C@H]3CCCCCN(C3=O)[C@@H](Cc3ccc(C(F)(F)F)cc3)C(=O)N(C)CC(=O)N[C@@H](CCc3ccc(C(F)(F)F)c(C)c3)C(=O)N2C1 (stereo in doubt) [PP0883],NRAS/KRAS (ratio of KD value with respect to NRAS to KD value with respect to KRAS),[1]; KD ratio,B (a compound having 3 or more and less than 10 is denoted as B)
same,HRAS/KRAS (ratio of KD value with respect to HRAS to KD value with respect to KRAS),[2]; KD ratio,B (a compound having 3 or more and less than 10 is denoted as B)
CCC(CC)[C@H]1C(=O)N(C)[C@H](C(=O)N(C)C)CC(=O)N(C)[C@@H](COC)C(=O)N[C@@H]([C@@H](C)CC)C(=O)N(C2CC2)CC(=O)N(C)[C@H]2C/C=C\CCN(C2=O)[C@@H](Cc2ccc(C)cc2)C(=O)N(C)CC(=O)N[C@@H](CCc2ccc(Cl)c(Cl)c2)C(=O)N2C[C@H](OC(C)C)C[C@H]2C(=O)NC2(CC(C)(C)C2)C(=O)N1C (stereo in doubt) [PP2509],NRAS/KRAS (ratio of KD value with respect to NRAS to KD value with respect to KRAS),[1],AA (a compound having 20 or more is denoted as AA)
same,HRAS/KRAS (ratio of KD value with respect to HRAS to KD value with respect to KRAS),[2],A (a compound having 10 or more and less than 20 is denoted as A)
CCC[C@H]1C(=O)N[C@H]([C@@H](C)CC)C(=O)N2C[C@@H](OC)C[C@H]2C(=O)N(C)[C@H]2C/C=C\CCN(C2=O)[C@@H](Cc2ccc(C)cc2)C(=O)N(C)CC(=O)N[C@@H](CCc2ccc(C(F)(F)F)c(Cl)c2)C(=O)N2C[C@H](OCC)C[C@H]2C(=O)NC2(CCC2)C(=O)N(C)[C@@H](C2CCCC2)C(=O)N(C)[C@H](C(=O)N(C)C)CC(=O)N1C (stereo in doubt) [PP2552],NRAS/KRAS (ratio of KD value with respect to GDP-bound NRAS wild-type protein to KD value with respect to KRAS),[1],A (a compound having 10 or more and less than 20 is denoted as A)
same,HRAS/KRAS (ratio of KD value with respect to GDP-bound HRAS wild-type protein to KD value with respect to KRAS),[2],B (a compound having 3 or more and less than 10 is denoted as B)
CCOC[C@H]1C(=O)N[C@@H]([C@@H](C)CC)C(=O)N(C2CC2)CC(=O)N(C)[C@@H]2C/C=C\CCN(C2=O)[C@@H](Cc2ccc(C)cc2)C(=O)N(C)CC(=O)N[C@@H](CCc2ccc(C(F)(F)F)c(OC)c2)C(=O)N2C[C@H](OCC)C[C@@H]2C(=O)NC2(CC(C)(C)C2)C(=O)N(C)[C@H](CC2CCC2)C(=O)N(C)[C@H](C(=O)N(C)C)CC(=O)N1C (stereo in doubt) [PP2760],NRAS/KRAS (ratio of KD value with respect to GDP-bound NRAS wild-type protein to KD value with respect to KRAS),[1],A (a compound having 10 or more and less than 20 is denoted as A)
same,HRAS/KRAS (ratio of KD value with respect to GDP-bound HRAS wild-type protein to KD value with respect to KRAS),[2],B (a compound having 3 or more and less than 10 is denoted as B)
CCC[C@H]1C(=O)N[C@H]([C@@H](C)CC)C(=O)N(C)CC(=O)N(C)[C@H]2C/C=C\CCN(C2=O)[C@@H](Cc2ccc(C)cc2)C(=O)N(C)CC(=O)N[C@@H](CCc2cc(F)c(C(F)F)c(F)c2)C(=O)N2C[C@H](OCC)C[C@H]2C(=O)NC2(CC(C)(C)C2)C(=O)N(C)[C@@H](C(CC)CC)C(=O)N(C)[C@H](C(=O)N(C)C)CC(=O)N1C (stereo in doubt) [PP2783],NRAS/KRAS (ratio of KD value with respect to GDP-bound NRAS wild-type protein to KD value with respect to KRAS),[1],A (a compound having 10 or more and less than 20 is denoted as A)
same,HRAS/KRAS (ratio of KD value with respect to GDP-bound HRAS wild-type protein to KD value with respect to KRAS),[2],A (a compound having 10 or more and less than 20 is denoted as A)
